In patent US20250297321A1, “METHOD FOR DETECTING METABOLIC REPROGRAMING OF CANCER TOWARDS FATTY ACIDS METABOLISM” (INSTITUT NATIONAL DE LA SANTE ET DE LA RECHERCHE MEDICALE, priority 2022, published 2025):

Columns and labels:
Type in all cases: cell-based, human
[1] = system: MD901 cells; assay: Induction of cell death in MD901 cells
Procedure: (§1) DLBCL cells were harvested and washed twice with cold PBS. Cells were resuspended in 1× binding buffer containing Annexin V/APC (BD Biosciences Pharmingen) and 4′,6-diaminidino-2-phenylindole (DAPI, Molecular Probes) for 15 min at room temperature. The samples were subjected to cytometric analysis with a MACSQuant Analyzer 10 Flow Cytometer (Miltenyi Biotec) and the data were analyzed using the Flowjo v10.2 software.
(§2) Cell viability was assessed using trypan blue dye exclusion.

[2] = system: Huh7 cells; assay: Huh7 cell growth (RelB overexpressing cells); settings: 4-BCA 10 μM, 48 h, vs control cells (FIG. 4B)
Procedure: (§3) Huh7 HCC cell line and genetically engineered derivatives targeting RelB expression levels (knock-down of RelB expression: Huh7 shRNA human RelB & Huh7 shRNA control; RelB overexpression: Huh7 cDNA human WT Rel & Huh7 cDNA control) were grown in MEM culture medium supplemented with 10% of fetal bovine serum (FBS), 100 U/mL penicillin, and […] streptomycin, 25 mM Hepes Buffer, 1 mM of sodium pyruvate, 1% of non-essential amino-acids (NEAA), which stands for standard culture medium. Huh7 genetically engineered cell lines were only used at passage P1 to P6. Cells passaging occurred twice a week to maintain a condition of 75% confluence. To evaluate the effect of fatty acid treatment, Huh7 cells cultured in FBS-free medium for hours were treated for 16 hours in FBS-free medium supplemented with various concentration (50 to 300 μM) of either oleic or palmitic acid along with 1% of free fatty acid bovine serum albumin.
as §2

[3] = system: OCILY19 cells; assay: Induction of cell death in OCILY19 cells
Procedure: as §1, §2

[4] = system: SUDHL-4 cells; assay: Induction of cell death in SUDHL-4 cells; settings: glycolytic BCR SUDHL-4 cells
Procedure: as §1, §2

[5] = system: Huh7 cells; assay: Huh7 cell death, DAPI staining; settings: RelB overexpressing Huh7, palmitic acid 50 μM, 0% FBS, 48 h, in presence of 4-BCA (FIG. 4C)
Procedure: as §3, with “Huh7 cells cultured in FBS-free medium for hours were treated for 16 hours in FBS-free medium supplemented with various concentration (50 to 300 μM) of either oleic or palmitic acid along with 1% of free fatty” left out
Huh7 cells were stained with 4′, 6-diamidino-2-phenylindole (DAPI). Then, images were acquired for DAPI positive cells by fluorescent microscopy (magnification: 20×) on at least 6 different fields combined with one acquisition under white light to quantify the total number of cells in the same field. Quantification was carried out by image J software. Cell death is expressed in percentage (number of DAPI positive cells/total number of cells per field)*100).

[6] = system: MD901 DLBCL cell line; assay: Annexin V/DAPI apoptosis assay in MD901; settings: for Apoptosis by Annexin V/DAPI staining: MD901 (FIG. 8A); for Drug-induced apoptosis upon RelB-expression knockdown: RelB knocked-down MD901 vs shRNA control (FIG. 8A)
Procedure: MD901 and SUDHL-4 DLBCL cell lines were obtained from Jos6 Angel Martinez-Climent (Centro de Investigación Médica Aplicada, Pamplona, Spain).
as §1

[7] = system: MD901 DLBCL cell line; assay: Mitochondrial transmembrane potential (TMRM) in MD901; settings: RelB knocked-down MD901, TMRM low (FIG. 8B)
Procedure: For determination of mitochondrial transmembrane potential (ΔΨm), cells were stained with 100 nM of Tetramethyl rhodamine methyl ester (TMRM) (Molecular Probes) in RPMI-1640 Glutamax medium for 30 min at room temperature. Cells were evaluated by cytometric analysis as above. During apoptosis, the permeabilization of the mitochondrial outer membrane leads to loss of mitochondrial transmembrane potential (ΔΨm) corresponding to TMRM low/DAPI neg cells.

`O=C(O)/C=C/CBr` [4-BCA, 4-bromocrotonic acid] was tested, and the “Cell death upon inhibition of fatty acid oxidation” value ([1]; MD901, as soon as 24 hours post-treatment (FIG. 9A)) was “massive and rapid cell death”, the “Cell growth in RelB overexpressing Huh7 cells” value [2] was “the RelB-dependent increase in Huh7 cell number was lost and cell growth rate was even lowered compared to the control cells” and the “Cell death upon inhibition of fatty acid oxidation” value ([3]; Oci-Ly19, as soon as 24 hours post-treatment (FIG. 10A)) was “massive and rapid cell death”. For the same molecule, the “Sensitivity to 4-BCA treatment” value ([4]; compared with MD901 / Oci-Ly19 (not shown)) was “much less sensitive” and the “Cell death (DAPI positive cells), RelB pro-survival effect against palmitate” value [5] was “RelB pro-survival effect was almost completely abolished”.

In the case of `C=C1C(=O)OC(CCCCCCCC)C1C(=O)O` (stereo not shown) [C75], the “Cell death upon inhibition of fatty acid synthesis” value ([1]; MD901, as soon as 24 hours post-treatment (FIG. 11A)) is reported as “massive and rapid cell death”, the “Cell death upon inhibition of fatty acid synthesis” value ([3]; Oci-Ly19, as soon as 24 hours post-treatment (FIG. 12A)) is reported as “massive and rapid cell death” and the “Sensitivity to C75” value ([4]; compared with MD901 / Oci-Ly19) is reported as “much less sensitive”.

In the case of `CN(C)C(=N)N=C(N)N` [Metformin, metformin], the “Apoptosis by Annexin V/DAPI staining” value [6] is reported as “significant apoptosis”, the “Cell death induced by metformin upon knockdown of RelB expression” value ([6]; RelB knocked-down MD901) is reported as “even more pronounced cell death” and the “Drug-induced apoptosis upon RelB-expression knockdown” value [6] is reported as “markedly increased”. The “Loss of mitochondrial potential upon RelB-expression knockdown” value [7] was “increase in loss of mitochondrial potential”.

With `COc1cc(Nc2ncc(F)c(Nc3ccc4c(n3)NC(=O)C(C)(C)O4)n2)cc(OC)c1OC` [R406] the “Sensitivity to R406-induced apoptosis” value ([6]; MD901 (FIG. 6A)) was “insensitive”.

B1: Kidrolase®: L-asparaginase; catalyzes the hydrolysis of asparagine and glutamine into aspartate and glutamate (protein, UniProt P00805 23-348, looked up)
L-asparaginase 2: LPNITILATGGTIAGGGDSATKSNYTVGKVGVENLVNAVPQLKDIANVKGEQVVNIGSQDMNDNVWLTLAKKINTDCDKTDGFVITHGTDTMEETAYFLDLTVKCDKPVVMVGAMRPSTSMSADGPFNLYNAVVTAADKASANRGVLVVMNDTVLDGRDVTKTNTTDVATFKSVNYGPLGYIHNGKIDYQRTPARKHTSDTPFDVSKLNELPKVGIVYNYANASDLPAKALVDAGYDGIVSAGVGNGNLYKSVFDTLATAAKTGTAVVRSSRVPTGATTQDAEVDDAKYGFVASGTLNPQKARVLLQLALTQTKDPQQIQQIFNQY
With B1 the “Apoptosis by Annexin V/DAPI staining” value [6] was “significant apoptosis”, the “Drug-induced apoptosis upon RelB-expression knockdown” value [6] was “markedly increased” and the “Loss of mitochondrial potential upon RelB-expression knockdown” value [7] was “increase in loss of mitochondrial potential”.
